Measured values published in ChEMBL document CHEMBL1131327, “Selective Pneumocystis carinii dihydrofolate reductase inhibitors: design, synthesis, and biological evaluation of new 2,4-diamino-5-substituted-furo[2,3-d]pyrimidines” (J Med Chem, 1998).

Assays:
[1] = biological target: T1, Dihydrofolate reductase (Pneumocystis carinii, UniProt P16184)
T1 sequence (P16184 whole entry): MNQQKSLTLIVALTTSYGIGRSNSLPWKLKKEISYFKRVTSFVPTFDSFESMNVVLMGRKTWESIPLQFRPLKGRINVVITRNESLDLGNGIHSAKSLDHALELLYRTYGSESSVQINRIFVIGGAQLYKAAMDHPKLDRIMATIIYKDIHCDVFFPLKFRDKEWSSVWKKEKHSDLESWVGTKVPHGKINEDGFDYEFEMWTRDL
Description: Inhibitory activity against dihydrofolate reductase from pneumocystis carinii

[2] = biological target: T2, Dihydrofolate reductase (Rattus norvegicus, UniProt Q920D2)
T2 sequence (Q920D2 whole entry): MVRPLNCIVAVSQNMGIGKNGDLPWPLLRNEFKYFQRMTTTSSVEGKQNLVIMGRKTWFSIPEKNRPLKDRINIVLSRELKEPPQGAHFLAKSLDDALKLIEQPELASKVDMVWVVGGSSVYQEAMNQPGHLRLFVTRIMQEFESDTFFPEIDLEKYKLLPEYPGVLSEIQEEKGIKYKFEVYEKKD
Description: Inhibitory activity against dihydrofolate reductase from rat liver

[3] = biological target: T3, Bifunctional dihydrofolate reductase-thymidylate synthase (Toxoplasma gondii, UniProt Q07422)
T3 sequence (Q07422 whole entry): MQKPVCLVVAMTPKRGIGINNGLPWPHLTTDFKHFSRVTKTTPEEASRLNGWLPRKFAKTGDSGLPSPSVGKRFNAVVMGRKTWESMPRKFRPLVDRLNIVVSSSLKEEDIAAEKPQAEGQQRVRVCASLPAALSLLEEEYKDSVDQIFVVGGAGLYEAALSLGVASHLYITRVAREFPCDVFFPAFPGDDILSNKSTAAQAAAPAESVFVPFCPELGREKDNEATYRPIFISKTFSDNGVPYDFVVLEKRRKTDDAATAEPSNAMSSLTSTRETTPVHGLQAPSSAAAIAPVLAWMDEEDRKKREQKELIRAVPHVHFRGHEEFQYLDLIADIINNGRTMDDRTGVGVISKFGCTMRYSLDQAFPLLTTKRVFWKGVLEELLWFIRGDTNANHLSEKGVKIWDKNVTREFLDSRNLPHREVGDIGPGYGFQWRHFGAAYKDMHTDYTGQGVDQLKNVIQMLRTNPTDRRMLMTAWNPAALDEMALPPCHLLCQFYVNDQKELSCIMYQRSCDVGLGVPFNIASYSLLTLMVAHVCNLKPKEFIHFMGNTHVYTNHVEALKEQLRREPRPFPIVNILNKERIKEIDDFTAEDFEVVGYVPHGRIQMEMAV
Description: Inhibitory activity against dihydrofolate reductase from Toxoplasma gondii

Row | Compound | IC50 [1] [µM] | IC50 [2] [µM] | IC50 [3] [µM]
1 | Nc1nc(N)c2c(CSc3ccccc3)coc2n1 | > 26 | – | > 26
2 | COc1ccc(OC)c(N(C)Cc2coc3nc(N)nc(N)c23)c1 | > 27 | > 27 | > 27
3 | Nc1nc(N)c2c(CNc3ccc(Oc4ccccc4)cc3)coc2n1 | – | – | 32.4
4 | Nc1nc(N)c2c(CNc3cc(Cl)ccc3Cl)coc2n1 | – | – | > 47
5 | CN(Cc1coc2nc(N)nc(N)c12)c1cc(Cl)c(Cl)c(Cl)c1 | 284 | – | –
6 | Nc1nc(N)c2c(CNc3ccc4ccccc4c3)coc2n1 | 41 | 36.5 | 38

Further lines, with some results ahead:

Row | IC50 [1] [µM] | IC50 [2] [µM] | Compound | IC50 [3] [µM]
7 | 14.8 | 14.6 | CN(Cc1coc2nc(N)nc(N)c12)c1ccc2ccccc2c1 | –
8 | 44.8 | > 27 | CN(Cc1coc2nc(N)nc(N)c12)c1ccc(Cl)c(Cl)c1 | > 27
9 | > 12 | > 12 | Nc1nc(N)c2c(CNc3ccccc3Oc3ccccc3)coc2n1 | > 12
10 | > 31.3 | > 31.3 | COc1cccc(NCc2coc3nc(N)nc(N)c23)c1 | > 31.3
11 | – | 137 | Nc1nc(N)c2c(CNc3ccccc3-c3ccccc3)coc2n1 | –
